pIC50: −log10 of the molar value.
What was measured:
[1] = n-octanol-phosphate buffer partition coefficient, log D in CH3CN-MeOH-phosphate buffer at pH 5.2 by HPLC-UV analysis; assay type: physicochemical
Plasmodium falciparum [2] = experiment: Antimalarial activity against ring stage Plasmodium falciparum 3D7 infected with human red blood cells incubated for 48 hrs by SYBR Green method; assay type: functional, organism-based; details: 3D7, 48 h
[3] = Cytotoxicity against human HepG2A16 cells by MTT assay; assay type: cell-based
Plasmodium falciparum [4] = experiment: Antimalarial activity against ring stage Plasmodium falciparum Dd2 infected with human red blood cells incubated for 48 hrs by SYBR Green method; assay type: functional; details: Dd2, 48 h
[5] = Inhibition of beta-hematin formation after 5 to 6 hrs by pyridine-ferrichrome detergent-mediated assay; assay type: physicochemical
[6] = Selectivity index, ratio of IC50 for human HepG2A16 cells to IC50 for ring stage Plasmodium falciparum W2; assay type: toxicity; details: read-out: Ratio IC50
Plasmodium falciparum [7] = experiment: Antimalarial activity against ring stage Plasmodium falciparum W2 infected with human red blood cells incubated for 48 hrs by flow cytometry; assay type: functional, organism-based; details: W2, 48 h
[8] = n-octanol-phosphate buffer partition coefficient, log D in CH3CN-MeOH-phosphate buffer at pH 7.4 by HPLC-UV analysis; assay type: physicochemical
Plasmodium falciparum [9] = experiment: Resistance index, ratio of IC50 for ring stage Plasmodium falciparum Dd2 to IC50 for ring stage Plasmodium falciparum 3D7; assay type: functional
Plasmodium falciparum [10] = experiment: Resistance index, ratio of IC50 for ring stage Plasmodium falciparum W2 to IC50 for ring stage Plasmodium falciparum 3D7; assay type: functional
Plasmodium falciparum [11] = experiment: Ratio of chloroquine IC50 to compound IC50 for ring stage Plasmodium falciparum W2 infected with human red blood cells incubated for 48 hrs by flow cytometry; assay type: functional

CCN(CC)CCCNc1c2ccc(Cl)cc2nc2c3cc(Cl)ccc3n(CCN3CCCC3)c12
logD [1]: 0.54 | pIC50 (Plasmodium falciparum [2]): 6.41 | pIC50 [3]: 5.22 | pIC50 (Plasmodium falciparum [4]): 6.32 | pIC50 [5]: 4.69 | selectivity ratio [6]: 78 | pIC50 (Plasmodium falciparum [7]): 7.11 | logD [8]: 3.23

CCN(CC)CCCC(C)Nc1c2ccc(Cl)cc2nc2c3cc(Cl)ccc3n(CCN3CCCC3)c12 (centres undefined)
logD [1]: 0.26 | pIC50 (Plasmodium falciparum [2]): 6.34 | pIC50 [3]: 5.19 | pIC50 (Plasmodium falciparum [4]): 6.15 | pIC50 [5]: 4.97 | selectivity ratio [6]: 52 | pIC50 (Plasmodium falciparum [7]): 6.90

Clc1ccc2c(NCCCN3CCCCC3)c3c(nc2c1)c1ccccc1n3CCN1CCCC1
logD [1]: -0.01 | pIC50 (Plasmodium falciparum [2]): 6.27 | pIC50 [3]: 5.37 | pIC50 (Plasmodium falciparum [4]): 6.18 | pIC50 [5]: 4.37 | selectivity ratio [6]: 37 | pIC50 (Plasmodium falciparum [7]): 6.93 | logD [8]: 2.8

CCN(CC)CCNc1c2ccc(Cl)cc2nc2c3ccccc3n(CCN3CCCC3)c12
logD [1]: 0.05 | pIC50 (Plasmodium falciparum [2]): 6.18 | pIC50 [3]: 5.19 | pIC50 (Plasmodium falciparum [4]): 6.14 | pIC50 [5]: 4.01 | selectivity ratio [6]: 40 | pIC50 (Plasmodium falciparum [7]): 6.80 | logD [8]: 3.2

Clc1ccc2c(NCCCN3CCOCC3)c3c(nc2c1)c1ccccc1n3CCN1CCCC1
logD [1]: 0.69 | pIC50 (Plasmodium falciparum [2]): 6.33 | pIC50 [3]: 5.07 | pIC50 (Plasmodium falciparum [4]): 6.17 | pIC50 [5]: 4.48 | selectivity ratio [6]: 96 | pIC50 (Plasmodium falciparum [7]): 7.05

CCN(CC)CCCNc1c2ccc(Cl)cc2nc2c3ccccc3n(CCN3CCOCC3)c12
logD [1]: 0.72 | pIC50 (Plasmodium falciparum [2]): 6.49 | pIC50 [3]: 5.34 | pIC50 (Plasmodium falciparum [4]): 6.34 | pIC50 [5]: 4.57 | selectivity ratio [6]: 41 | pIC50 (Plasmodium falciparum [7]): 6.95

CCN(CC)CCNc1c2ccc(Cl)cc2nc2c3cc(Cl)ccc3n(CCN3CCOCC3)c12
logD [1]: 1.79 | pIC50 (Plasmodium falciparum [2]): 6.29 | pIC50 [3]: 4.78 | pIC50 (Plasmodium falciparum [4]): 6.17 | pIC50 [5]: 4.84 | selectivity ratio [6]: 103 | pIC50 (Plasmodium falciparum [7]): 6.78

CCN(CC)CCCNc1c2ccc(Cl)cc2nc2c3cc(Cl)ccc3n(CCN3CCOCC3)c12
logD [1]: 1.5 | pIC50 (Plasmodium falciparum [2]): 6.70 | pIC50 [3]: 5.33 | pIC50 (Plasmodium falciparum [4]): 6.51 | pIC50 [5]: 4.68 | selectivity ratio [6]: 49 | pIC50 (Plasmodium falciparum [7]): 7.02

Clc1ccc2c(NCCCN3CCCCC3)c3c(nc2c1)c1cc(Cl)ccc1n3CCN1CCCC1
logD [1]: 0.78 | pIC50 (Plasmodium falciparum [2]): 6.18 | pIC50 [3]: 5.24 | pIC50 (Plasmodium falciparum [4]): 6.20 | pIC50 [5]: 4.87 | selectivity ratio [6]: 59 | pIC50 (Plasmodium falciparum [7]): 7.01 | logD [8]: 3.1

Clc1ccc2c(NCCCN3CCOCC3)c3c(nc2c1)c1cc(Cl)ccc1n3CCN1CCCC1
logD [1]: 1.5 | pIC50 (Plasmodium falciparum [2]): 6.39 | pIC50 [3]: 4.92 | pIC50 (Plasmodium falciparum [4]): 6.24 | pIC50 [5]: 4.76 | selectivity ratio [6]: 41 | pIC50 (Plasmodium falciparum [7]): 6.53

CCN(CC)CCNc1c2ccc(Cl)cc2nc2c3cc(Cl)ccc3n(CCN3CCCC3)c12
logD [1]: 1 | pIC50 (Plasmodium falciparum [2]): 6.61 | pIC50 [3]: 5.12 | pIC50 (Plasmodium falciparum [4]): 6.67 | pIC50 [5]: 4.61 | selectivity ratio [6]: 103 | pIC50 (Plasmodium falciparum [7]): 7.14

CCN(CC)CCCNc1c2ccc(Cl)cc2nc2c3ccccc3n(CCN3CCCC3)c12
logD [1]: -0.03 | pIC50 (Plasmodium falciparum [2]): 6.32 | pIC50 [3]: 5.35 | pIC50 (Plasmodium falciparum [4]): 6.34 | pIC50 [5]: 4.66 | selectivity ratio [6]: 52 | pIC50 (Plasmodium falciparum [7]): 7.06 | logD [8]: 1.48

CCN(CC)CCCC(C)Nc1ccnc2cc(Cl)ccc12 (centres undefined) [CHLOROQUINE]
pIC50 [5]: 4.55

Clc1ccc2c(NCCN3CCCC3)c3c(nc2c1)c1cc(Cl)ccc1n3CCN1CCCC1
logD [1]: 1.05 | pIC50 (Plasmodium falciparum [2]): 6.43 | pIC50 [3]: 5.06 | pIC50 (Plasmodium falciparum [4]): 6.34 | pIC50 [5]: 4.63 | selectivity ratio [6]: 70 | pIC50 (Plasmodium falciparum [7]): 6.90 | logD [8]: 3

CCN(CC)CCOc1cc(Cl)cc2nc3c4cc(Cl)ccc4n(CCN(CC)CC)c3cc12
Ratio IC50 (Plasmodium falciparum [9]): 0.3 | pIC50 [3]: 5.28 | Ratio IC50 (Plasmodium falciparum [10]): 0.3 | selectivity ratio [6]: 212

CCN(CC)CCCC(C)Nc1c2ccc(Cl)cc2nc2c3ccccc3n(CCN3CCCC3)c12 (centres undefined)
logD [1]: 0.1 | pIC50 (Plasmodium falciparum [2]): 6.61 | pIC50 [3]: 5.60 | pIC50 (Plasmodium falciparum [4]): 6.50 | Ratio IC50 (Plasmodium falciparum [11]): 10 | pIC50 [5]: 5.10 | selectivity ratio [6]: 125 | pIC50 (Plasmodium falciparum [7]): 7.70 | logD [8]: 0.6

Clc1ccc2c(NCCN3CCCC3)c3c(nc2c1)c1ccccc1n3CCN1CCCC1
logD [1]: 0.34 | pIC50 (Plasmodium falciparum [2]): 6.33 | pIC50 [3]: 5.34 | pIC50 (Plasmodium falciparum [4]): 6.20 | pIC50 [5]: 4.10 | selectivity ratio [6]: 46 | pIC50 (Plasmodium falciparum [7]): 7.00 | logD [8]: 2.7

— ChEMBL document CHEMBL3400065, “N10,N11-di-alkylamine indolo[3,2-b]quinolines as hemozoin inhibitors: design, synthesis and antiplasmodial activity” (Bioorg Med Chem, 2015)
